# In patent US20080311601A1, “Methods for Prediction and Prognosis of Cancer, and Monitoring Cancer Therapy” (priority 2005, published 2008):
# Tested on: VEGF
# Experiment: VEGF ELISA on plasma from renal cell carcinoma patients treated with Sorafenib
# Assay type: in vivo, human
# Protocol: Duplicate samples were used to measure the VEGF level using a VEGF ELISA (R&D Systems, Minneapolis, Minn.) per the manufacturers directions. The mean value of the duplicate measurements was determined for each patient.
structure (smiles),measurement,setting,value
CNC(=O)c1cc(Oc2ccc(NC(=O)Nc3ccc(Cl)c(C(F)(F)F)c3)cc2)ccn1 [Sorafenib],Median VEGF,Baseline (pretreatment),237.4 pg/mL
same,Median VEGF,Cycle 1 Day 21,301.6 pg/mL
same,Median VEGF,Cycle 3 Day 1,309.0 pg/mL
same,change of VEGF levels from baseline,"at both time points (Cycle 1 Day 21, Cycle 3 Day 1), p<<0.01, paired t-test",increase significantly from baseline
